Molecular target: recombinant PIM-1 (Homo sapiens, UniProt P11309)
Assay: PIM-1 kinase assay (radiometric, 15 uM ATP, DMSO 4%)
Assay type: biochemical
Details: not given
Procedure: The following procedure was used to assay the PIM-1 kinase activity of compounds of the invention. Other methods for assaying PIM-1 and other PIM kinases, as well as methods to assay for activity against the various kinases in FIG. 1, are known in the art.
(specific activity approx. 500 cpm/pmol), DMSO 4% and test inhibitor compound at the required concentration. The reaction was initiated by the addition of the Magnesium ATP mixture. After 40 min incubation at 23° C., the reactions were quenched by the addition of 100 ul 0.75% Phosphoric acid, and the labeled peptide collected by filtration through a phosphocellulose filter plate. The plate was washed 4 times with 0.075% phosphoric acid (100 ul per well) and then, after the addition of scintillation fluid (20 ul per well), the counts were measured by a scintillation counter.

Sequence of recombinant PIM-1 (P11309 whole entry): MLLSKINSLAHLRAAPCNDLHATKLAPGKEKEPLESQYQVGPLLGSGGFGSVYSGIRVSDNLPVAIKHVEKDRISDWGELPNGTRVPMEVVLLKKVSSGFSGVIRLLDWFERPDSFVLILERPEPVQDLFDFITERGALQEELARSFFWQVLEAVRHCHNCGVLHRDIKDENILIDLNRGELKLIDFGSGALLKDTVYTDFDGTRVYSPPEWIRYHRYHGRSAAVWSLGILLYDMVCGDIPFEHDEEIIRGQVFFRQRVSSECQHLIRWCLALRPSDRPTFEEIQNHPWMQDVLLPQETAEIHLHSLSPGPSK

SMILES | inhibition at 2 µM [%]
CCC(=O)Nc1cc(C(=O)NCCN2CCCC2)ccc1-c1ccc(/C=C2/C(=O)Nc3ccccc32)o1 [Compound 168] | -14.9

Same assay, conditions: Table 1; % inhibition at the high dose (2 micromolar) in a single screening assay; 15 μM ATP

inhibition at 2 µM [%] | PIM-1 Inhibition @ 15 μM ATP [%] | SMILES
-2.65 | – | CN(C)C1CCN(C(=O)c2ccccc2-c2ccc(/C=C3/C(=O)Nc4ccccc43)o2)CC1 [Compound 61]
11.3 | – | O=C1Nc2ccccc2/C1=C\c1ccc(-c2ccc(C(=O)NCCN3CCCC3)c(F)c2)o1 [Compound 159]
-3.02 | – | O=C1Nc2ccccc2/C1=C\c1ccc(-c2cccc(C(=O)Nc3nccs3)c2)o1 [Compound 167]
24.3 | – | CCN1CCCC1CNC(=O)c1ccc(-c2ccc(/C=C3/C(=O)Nc4ccccc43)o2)cn1 (stereo not drawn) [Compound 130]
-23.4 | – | Cc1cc(NCCN2CCCC2)c2cccc(-c3ccc(/C=C4/C(=O)Nc5ccc(Cl)cc54)o3)c2n1 [Compound 139]
22.2 | – | O=C1Nc2ccc(Cl)cc2/C1=C\c1ccc(-c2ccc(Cl)c(C(=O)NCCN3CCCC3)c2)o1 [Compound 106]
10.9 | – | CN(C)c1ccc(CNC(=O)c2cccc(-c3ccc(/C=C4/C(=O)Nc5ccc(Cl)cc54)o3)c2)cc1 [Compound 177]
27.2 | – | O=C1Nc2ccccc2/C1=C\c1ccc(-c2ccc(C(=O)NCCN3CCCC3)nc2)o1 [Compound 128]
29.2 | – | CCN(CC)C(=O)c1cccc(-c2ccc(/C=C3/C(=O)Nc4ccc(Cl)cc43)o2)c1 [Compound 173]
25.2 | – | CC1CCN(CCCNC(=O)c2cccc(-c3ccc(/C=C4/C(=O)Nc5ccc(Cl)cc54)o3)c2)CC1 [Compound 121]
11.5 | – | O=C1Nc2ccc(C(=O)NCc3ccccc3)cc2/C1=C\c1ccc(-c2cccc(C(=O)NCCN3CCCC3)c2)o1 [Compound 8]
27.8 | – | CN(C)C1CCN(C(=O)c2cc(-c3ccc(/C=C4/C(=O)Nc5ccc(F)cc54)o3)ccc2Cl)CC1 [Compound 75]
34.5 | – | CCOC(=O)c1cncc(-c2ccc(/C=C3/C(=O)Nc4ccc(Cl)cc43)o2)c1 [Compound 145]
11.2 | – | CCN(CC)CCNC(=O)c1ccccc1-c1ccc(/C=C2/C(=O)Nc3ccc(F)cc32)o1 [Compound 68]
11.4 | – | O=C1Nc2ccccc2/C1=C\c1ccc(-c2ccccc2C(=O)O)o1 [Compound 31]
2.91 | – | CN(CCN1CCCC1)C(=O)c1ccccc1-c1ccc(/C=C2/C(=O)Nc3ccccc32)o1 [Compound 55]
10.3 | – | CN1CCCC(NC(=O)c2ccccc2-c2ccc(/C=C3/C(=O)Nc4ccc(F)cc43)o2)C1 (stereo not drawn) [Compound 63]
90.6 | – | CN1CCCCC1CNC(=O)c1ccc(-c2ccc(/C=C3/C(=O)Nc4ccc(F)cc43)o2)cc1 (stereo not drawn) [Compound 86]
46 | – | O=C1Nc2ccc(F)cc2/C1=C\c1ccc(-c2cccc(C(=O)NC3CC3)c2)o1 [Compound 20]
88.3 | – | O=C1Nc2ccccc2/C1=C\c1ccc(-c2cc(C(=O)NCCN3CCCC3)ccc2F)o1 [Compound 78]
-18.8 | – | CN1CCN(C(=O)c2cc(-c3ccc(/C=C4/C(=O)Nc5ccccc54)o3)ccc2Cl)CC1 [Compound 26]

inhibition at 2 µM [%] | PIM-1 Inhibition @ 15 μM ATP [%] | SMILES
20.9 | – | O=C1Nc2ccc(F)cc2/C1=C\c1ccc(-c2ccc(Cl)c(C(=O)NCCN3CCCC3)c2)o1 [Compound 73]
21 | – | O=C1Nc2cc(F)ccc2/C1=C\c1ccc(-c2cccc(C(=O)NCCN3CCCC3)c2)o1 [Compound 39]
15.7 | – | CN1CCCCC1CNC(=O)c1cc(-c2ccc(/C=C3/C(=O)Nc4ccc(F)cc43)o2)ccc1Cl (stereo not drawn) [Compound 76]
8.16 | – | O=C1Nc2c(cccc2C(F)(F)F)/C1=C\c1ccc(-c2cccc(C(=O)NCCN3CCCC3)c2)o1 [Compound 50]
94.8 | – | O=C1Nc2ccc(F)cc2/C1=C\c1ccc(-c2ccc(C(=O)NCCN3CCCC3)cc2)o1 [Compound 81]
28.4 | – | O=C1Nc2ccccc2/C1=C\c1ccc(-c2ccc(C(=O)NCCCn3ccnc3)c(F)c2)o1 [Compound 161]
-17 | – | O=C1Nc2ccc(F)cc2/C1=C\c1ccc(-c2ccc(Cl)c(C(=O)N3CCCCC3)c2)o1 [Compound 77]
2.7 | – | O=C1Nc2cc(C(F)(F)F)ccc2/C1=C\c1ccc(-c2cccc(C(=O)NCCN3CCCC3)c2)o1 [Compound 49]
19.5 | – | CN1CCN(c2ccc(-c3ccc(/C=C4/C(=O)Nc5ccccc54)o3)cn2)CC1 [Compound 126]
-4.56 | – | CN1CCCCC1CNC(=O)c1cccc(-c2ccc(/C=C3/C(=O)Nc4ccc(C(F)(F)F)cc43)o2)c1 (stereo not drawn) [Compound 48]
-16.9 | – | CN1CCC(NC(=O)c2cc(-c3ccc(/C=C4/C(=O)Nc5ccccc54)o3)ccc2Cl)CC1 [Compound 27]
-19.4 | – | O=C1Nc2ccc(Cl)cc2/C1=C\c1ccc(-c2cccc(C(=O)N3CCCC(O)C3)c2)o1 (stereo not drawn) [Compound 178]
– | 35.20 | O=C1Nc2ccc(F)cc2/C1=C\c1ccc(-c2ccc(Cl)c(C(=O)NCCN3CCCC3)c2)o1 [Compound 12]
32.4 | – | CCN(CC)CCNC(=O)c1ccc(-c2ccc(/C=C3/C(=O)Nc4ccccc43)o2)cn1 [Compound 134]
-4.35 | – | Cn1cncc1CNC(=O)c1ccccc1-c1ccc(/C=C2/C(=O)Nc3ccccc32)o1 [Compound 59]
42.3 | – | Cc1cnc(CNC(=O)c2cccc(-c3ccc(/C=C4/C(=O)Nc5ccc(F)cc54)o3)c2)cn1 [Compound 18]
5.6 | – | O=C1Nc2ccccc2/C1=C\c1ccc(-c2ccc(Cl)c(C(=O)NCCN3CCCC3)c2)o1 [Compound 11]
32.7 | – | COCCNC(=O)c1ccc2c(c1)/C(=C\c1ccc(-c3cccc(C(=O)NCCN4CCCC4)c3)o1)C(=O)N2 [Compound 7]
36.7 | – | CN(C)CCNC(=O)c1cc(-c2ccc(/C=C3/C(=O)Nc4ccccc43)o2)ccc1Cl [Compound 24]
84.5 | – | CN1CCCC(NC(=O)c2ccc(-c3ccc(/C=C4/C(=O)Nc5ccc(F)cc54)o3)cc2)C1 (stereo not drawn) [Compound 85]

Same assay, conditions: Table 1; given for compounds with IC50 at or below 2 micromolar; 15 uM ATP; read-out: PIM-1 IC50

IC50 [nM] | SMILES
< 1000 | CCN(CC)CCNC(=O)c1ccc(Cl)c(-c2ccc(/C=C3/C(=O)Nc4ccc(F)cc43)o2)c1 [Compound 97]
< 2000 | O=C1Nc2ccccc2/C1=C\c1ccc(-c2ccccc2O)o1 [Compound 162]
< 1000 | CN1CCCCC1CNC(=O)c1ccc(-c2ccc(/C=C3/C(=O)Nc4ccc(F)cc43)o2)cc1 (stereo not drawn) [Compound 86]
< 1000 | O=C1Nc2ccccc2/C1=C\c1ccc(-c2cc(C(=O)NCCN3CCCC3)ccc2F)o1 [Compound 78]
< 1000 | O=C1Nc2ccc(F)cc2/C1=C\c1ccc(-c2ccc(C(=O)NCCN3CCCC3)cc2)o1 [Compound 81]
< 2000 | O=C1Nc2ccccc2/C1=C\c1ccc(-c2cccc(CO)c2)o1 [Compound 163]
< 1000 | O=C1Nc2ccc(Cl)cc2/C1=C\c1ccc(-c2cccc(C(=O)NCC(O)c3ccccc3)c2)o1 (stereo not drawn) [Compound 180]
< 1000 | O=C1Nc2ccc(Cl)cc2/C1=C\c1ccc(-c2cncc(C(=O)NCCN3CCCC3)c2)o1 [Compound 147]
< 1000 | CN(C)CCNC(=O)c1cccc(-c2ccc(/C=C3/C(=O)Nc4ccc(Cl)cc43)o2)c1 [Compound 118]
< 1000 | O=C(CCN1CCCC1)Nc1cccc(-c2ccc(/C=C3/C(=O)Nc4ccccc43)o2)c1 [Compound 184]
< 2000 | CN1CCC(N(C)C(=O)c2cccc(-c3ccc(/C=C4/C(=O)Nc5ccc(Cl)cc54)o3)c2)C1 (stereo not drawn) [Compound 109]
< 1000 | CCN1CCCC1CNC(=O)c1ccc(-c2ccc(/C=C3/C(=O)Nc4ccccc43)o2)cc1 (stereo not drawn) [Compound 32]
< 2000 | O=C1Nc2ccc(Cl)cc2/C1=C\c1ccc(-c2cncc(C(=O)O)c2)o1 [Compound 146]
< 1000 | O=C1Nc2ccc(Cl)cc2/C1=C\c1ccc(-c2cccc(C(=O)NC3=NCCS3)c2)o1 [Compound 174]
< 1000 | CCN1CCCC1CNC(=O)c1cccc(-c2ccc(/C=C3/C(=O)Nc4ccc(Cl)cc43)o2)c1 (stereo not drawn) [Compound 112]
< 1000 | O=C1Nc2ccc(Cl)cc2/C1=C\c1ccc(-c2cccc(C(=O)NCCCN3CCOCC3)c2)o1 [Compound 124]
< 1000 | O=C(CN1CCCC1)Nc1cccc(-c2ccc(/C=C3/C(=O)Nc4ccccc43)o2)c1 [Compound 186]
< 1000 | Cn1cncc1CNC(=O)c1cccc(-c2ccc(/C=C3/C(=O)Nc4ccc(F)cc43)o2)c1 [Compound 22]
< 2000 | CN1CCCCC1CNC(=O)c1ccc(Cl)c(-c2ccc(/C=C3/C(=O)Nc4ccc(F)cc43)o2)c1 (stereo not drawn) [Compound 102]
< 2000 | O=C1Nc2ccccc2/C1=C\c1ccc(-c2ccc(C(=O)NCCN3CCCC3)c(O)c2)o1 [Compound 182]
< 2000 | Cc1cc(-c2cccc(C(=O)NCCN3CCCC3)c2)oc1/C=C1/C(=O)Nc2ccccc21 [Compound 157]
< 1000 | O=C1Nc2ccc(Cl)cc2/C1=C\c1ccc(-c2cccc(C(=O)NCc3ccncc3)c2)o1 [Compound 108]
< 1000 | CCN(CC)CCNC(=O)c1cncc(-c2ccc(/C=C3/C(=O)Nc4ccc(Cl)cc43)o2)c1 [Compound 152]
< 1000 | O=C1Nc2ccc(Cl)cc2/C1=C\c1ccc(-c2cccc(C(=O)NCC(O)c3ccccn3)c2)o1 (stereo not drawn) [Compound 188]
< 2000 | CN(C)C1CCN(C(=O)c2ccc(-c3ccc(/C=C4/C(=O)Nc5ccccc54)o3)cc2)CC1 [Compound 38]
< 1000 | O=C1Nc2ccccc2/C1=C\c1ccc(-c2ccc(C(=O)O)nc2)o1 [Compound 127]
< 2000 | CN1CCCC(NC(=O)c2ccc(-c3ccc(/C=C4/C(=O)Nc5ccc(F)cc54)o3)cc2)C1 (stereo not drawn) [Compound 85]
< 2000 | CN1CCCC(NC(=O)c2ccc(Cl)c(-c3ccc(/C=C4/C(=O)Nc5ccc(F)cc54)o3)c2)C1 (stereo not drawn) [Compound 101]
< 2000 | Cc1cc(-c2cccc(C(=O)NCc3cncn3C)c2)oc1/C=C1/C(=O)Nc2ccccc21 [Compound 158]

Same assay, conditions: Table 3; DMSO 4%; read-out: PIM1: IC50 (DMSO 4%)

IC50 [nM] | SMILES
< 1000 | CN1CCCN(C(=O)c2ccc(Cl)c(-c3ccc(/C=C4/C(=O)Nc5ccc(F)cc54)o3)c2)CC1

Source: patent publication US20120190669A1, “OXINDOLE COMPOUNDS” (CYLENE PHARMACEUTICALS, INC., priority 2008, published 2012)
